This note sets out measurements from US20250368620A1, “ARNT Degrading Compounds and Uses Thereof” (Celgene Corporation, priority 2024, published 2025).

This assay has as its target T1, ARNT (Homo sapiens, UniProt P27540).
T1 construct: an sgRNA targeting the C-terminus of the ARNT gene near the stop codon; endogenous in cells; host or cells: HEK293 ARNT-HiBiT knock-in, homozygous clone
Nature of the assay: ARNT degradation in a HiBiT system (HEK293 ARNT-HiBiT Knock-In cell line). The class given is cell-based. The settings on record: half-maximal degradation concentration; HEK293 ARNT-HiBiT KI cells, 4h of treatment, luminescence. The method, then:
Compounds of Formula (I) were tested for ARNT degradation in a HiBiT system. A HEK293 ARNT-HiBiT Knock-In cell line was generated using CRISPR/Cas9 technology. Briefly, HEK293 cells were electroporated with the Neon system with an sgRNA targeting the C-terminus of the ARNT gene near the stop codon ([…] (SEQ ID NO: 1); chr 1: 150,812,014-150,812,034) and the HiBiT donor DNA template (80 nucleotides homology arms upstream and downstream of the insert site, with a GSGS (SEQ ID NO: 2) linker). A homozygous clone was selected after Sanger sequencing, and genetic edition was further validated using Nano-Glo HiBiT blotting system. HEK293 ARNT-HiBiT KI cells were cultured in DMEM+10% FBS at 37° C. and 5% CO2. For the assay, cells were seeded at 10,000 cells/well in white 384 plates (Corning #3570) in 22.5 μl of culture medium without phenol red. Test compounds were spotted in 384-well plates by an acoustic dispenser (10 concentrations, semi-log dilution, in 100% DMSO). Before treatment, compounds were diluted 1:100 or 1:1,000 in culture medium without phenol red, and cells were treated with 2.5 μl of diluted compounds 18h after seeding (final top concentration: 3 or 0.3 μM). After 4h of treatment, plates were equilibrated at room temperature for 30 min, and 25 μl of NANO-GLO® HiBiT Lytic reagent were added per well. Luminescence was measured on a plate reader 15 min after incubation with the detection reagent. Data were analyzed using the Genedata Screener Software version 19, and normalization was performed using the DMSO treated wells as Neutral Control and medium only (without cells) wells as Scale Reference. For curve fitting, the smart fit condensing method with a 4-parameters Hill model was used and the half-maximal degradation concentration (DC50) was calculated.

T1 sequence (P27540 whole entry): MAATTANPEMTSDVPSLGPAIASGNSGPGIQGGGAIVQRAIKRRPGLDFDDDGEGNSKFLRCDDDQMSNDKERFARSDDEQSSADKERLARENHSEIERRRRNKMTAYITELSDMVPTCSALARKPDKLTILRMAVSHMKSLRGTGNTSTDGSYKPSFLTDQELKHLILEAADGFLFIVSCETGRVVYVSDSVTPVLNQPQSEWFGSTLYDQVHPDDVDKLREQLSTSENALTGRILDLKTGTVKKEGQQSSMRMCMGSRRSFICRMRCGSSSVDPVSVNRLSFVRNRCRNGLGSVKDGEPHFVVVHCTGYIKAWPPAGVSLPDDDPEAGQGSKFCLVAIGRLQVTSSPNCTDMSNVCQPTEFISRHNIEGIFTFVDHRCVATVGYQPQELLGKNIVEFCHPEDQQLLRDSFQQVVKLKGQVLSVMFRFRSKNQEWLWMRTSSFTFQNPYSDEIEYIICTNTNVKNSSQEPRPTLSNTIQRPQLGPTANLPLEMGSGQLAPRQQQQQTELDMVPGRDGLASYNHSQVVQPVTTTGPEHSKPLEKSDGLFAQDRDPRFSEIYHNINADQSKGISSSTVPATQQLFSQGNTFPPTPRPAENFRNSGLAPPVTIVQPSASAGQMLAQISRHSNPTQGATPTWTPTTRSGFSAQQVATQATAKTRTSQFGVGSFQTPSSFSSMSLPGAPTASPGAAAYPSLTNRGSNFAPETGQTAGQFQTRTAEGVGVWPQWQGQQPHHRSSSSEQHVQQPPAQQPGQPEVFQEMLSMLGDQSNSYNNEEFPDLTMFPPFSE

Usually DC50 stands for the midpoint of the concentration-degradation curve. `C[C@@H]1c2cc(C(=O)N3Cc4c(ccc(Cl)c4F)[C@@H]3CN3CCC3)ccc2C(=O)N1[C@H]1CCC(=O)NC1=O` [Compound 17, (S)-3-((R)-5-((R)-1-(azetidin-1-ylmethyl)-5-chloro-4-fluoroisoindoline-2-carbonyl)-3-methyl-1-oxoisoindolin-2-yl)piperidine-2,6-dione] returned a DC50 of 1.2 nM.
To `CCOc1ccc2c(c1C)CN(C(=O)c1ccc3c(c1)[C@@H](C)N([C@H]1CCC(=O)NC1=O)C3=O)[C@H]2C` [Compound 23, (S)-3-((R)-5-((S)-5-ethoxy-1,4-dimethylisoindoline-2-carbonyl)-3-methyl-1-oxoisoindolin-2-yl)piperidine-2,6-dione] belongs 1.3 nM; to `COc1c(C(=O)N2Cc3cc(C(F)(F)F)ccc3[C@@H]2C)ccc2c1[C@@H](C)N([C@H]1CCC(=O)NC1=O)C2=O` [Compound 35, (S)-3-((R)-4-methoxy-3-methyl-5-((S)-1-methyl-5-(trifluoromethyl)isoindoline-2-carbonyl)-1-oxoisoindolin-2-yl)piperidine-2,6-dione], 3.3 nM; to `Cc1ccc2c(c1F)CN(C(=O)c1cc3c(cc1F)C(=O)N([C@H]1CCC(=O)NC1=O)[C@@H]3C)[C@H]2C` [Compound 25, (S)-3-((R)-5-fluoro-6-((S)-4-fluoro-1,5-dimethylisoindoline-2-carbonyl)-1-methyl-3-oxoisoindolin-2-yl)piperidine-2,6-dione], 1.6 nM.
To `C[C@@H]1c2cc(C(=O)N3Cc4c(Br)cccc4[C@@H]3CN(C)C)ccc2C(=O)N1[C@H]1CCC(=O)NC1=O` [Compound 3, (S)-3-((R)-5-((R)-4-bromo-1-((dimethylamino)methyl)isoin-doline-2-carbonyl)-3-methyl-1-oxoisoindolin-2-yl)piperidine-2,6-dione] belongs 0.39 nM; to `C[C@H]1c2ccc(Cl)c(F)c2CN1C(=O)c1ccc2c3c(cccc13)N(C1CCC(=O)NC1=O)C2=O` (stereo partly drawn) [Compound 5, 3-(5-((S)-5-chloro-4-fluoro-1-methylisoindoline-2-carbonyl)-2-oxobenzo[cd]indol-1(2H)-yl)piperidine-2,6-dione], 0.42 nM.
To `C[C@H]1c2ccc(Br)c(F)c2CN1C(=O)c1ccc2c(c1)CN(C1CCC(=O)NC1=O)C2=O` (stereo partly drawn) [Compound 36, 3-(5-((S)-5-bromo-4-fluoro-1-methylisoindoline-2-carbonyl)-1-oxoisoindolin-2-yl)piperidine-2,6-dione] belongs 3.4 nM.
In turn, `COc1c(C(=O)N2Cc3c(ccc(Cl)c3F)[C@@H]2C)ccc2c1[C@@H](C)N([C@H]1CCC(=O)NC1=O)C2=O` [Compound 33, (S)-3-((R)-5-((S)-5-chloro-4-fluoro-1-methylisoindoline-2-carbonyl)-4-methoxy-3-methyl-1-oxoisoindolin-2-yl)piperidine-2,6-dione] returned a DC50 of 3 nM.
The figure for `C[C@@H]1c2cc(C(=O)N3Cc4c(ccc(Cl)c4F)[C@@H]3CN3CC4CC3C4)ccc2C(=O)N1[C@H]1CCC(=O)NC1=O` [Compound 7, (S)-3-((R)-5-((R)-1-((2-azabicyclo[2.1.1]hexan-2-yl)methyl)-5-chloro-4-fluoroisoindoline-2-carbonyl)-3-methyl-1-oxoisoindolin-2-yl)piperidine-2,6-dione] is 0.48 nM; for `COc1c(Br)ccc2c1CN(C(=O)c1ccc3c(c1)[C@@H](C)N([C@H]1CCC(=O)NC1=O)C3=O)[C@H]2C` [Compound 22, (S)-3-((R)-5-((S)-5-bromo-4-methoxy-1-methylisoindoline-2-carbonyl)-3-methyl-1-oxoisoindolin-2-yl)piperidine-2,6-dione] it is 1.3 nM; for `C[C@@H]1c2cc(C(=O)N3Cc4ccc(F)cc4[C@@H]3C)ccc2C(=O)N1[C@H]1CCC(=O)NC1=O` [Compound 27, (S)-3-((R)-5-((S)-6-fluoro-1-methylisoindoline-2-carbonyl)-3-methyl-1-oxoisoindolin-2-yl)piperidine-2,6-dione] it is 1.7 nM.
The figure for `C[C@@H]1c2cc(C(=O)N3Cc4cc(C(F)(F)F)ccc4[C@@H]3CN(C)C)ccc2C(=O)N1[C@H]1CCC(=O)NC1=O` [Compound 8, (S)-3-((R)-5-((R)-1-((dimethylamino)methyl)-5-(trifluoromethyl)isoindoline-2-carbonyl)-3-methyl-1-oxoisoindolin-2-yl)piperidine-2,6-dione] is 0.61 nM.
To `Cc1ccc2c(c1F)CN(C(=O)c1ccc3c(c1)[C@@H](C)N([C@H]1CCC(=O)NC1=O)C3=O)[C@H]2C` [Compound 26, (S)-3-((R)-5-((S)-4-fluoro-1,5-dimethylisoindoline-2-carbonyl)-3-methyl-1-oxoisoindolin-2-yl)piperidine-2,6-dione] belongs 1.7 nM.
`C[C@@H]1c2cc(C(=O)N3Cc4c(ccc(Cl)c4F)[C@@H]3C)ccc2C(=O)N1[C@H]1CCC(=O)NC1=O` [Compound 30, (S)-3-((R)-5-((S)-5-chloro-4-fluoro-1-methylisoindoline-2-carbonyl)-3-methyl-1-oxoisoindolin-2-yl)piperidine-2,6-dione] gave a DC50 of 1.9 nM.
